Biological target: T1, PDE4B (Homo sapiens, UniProt Q07343)
T1 construct: hex-histidine (His6) (N); made in house
Assay: Novel coupled PDE/AK bioluminescent assay, PDE4B inhibition
Format: biochemical
Details: PDE4B catalytic domain
Excerpt: We developed a novel coupled PDE/AK bioluminescent high-throughput assay to measure the activity of phosphodiesterases. In the PDE/AK assay, the AMP produced from the hydrolysis of cAMP by phosphodiesterase is converted to adenosine diphosphate (ADP) by the phosphotransferase activity of adenylate kinase (also known as ADK or myokinase). Adenylate kinase will catalyze the conversion of 1 mole of AMP and 1 mole of ATP into 2 moles of ADP. Thus the conversion of AMP to ADP will result in the subsequent loss of ATP. The decrease in ATP concentration can be monitored as light output using luciferase in a reaction that requires ATP to produce light. The PDE/AK assay uses luciferase, which catalyzes the production of light from ATP present in the reaction mix. The amount of emitted light is inversely proportional to the level of AMP present in the reaction. Test compounds are incubated with the phosphodiesterases and phosphodiesterase inhibitors will decrease the rate of cAMP hydrolysis and decrease the subsequent production of AMP.
A novel coupled PDE/AK assay was utilized to measure the inhibitory activity of compounds on PDE isoforms. The catalytic domain of PDE4B was fused to an amino-terminus hex-histidine affinity tag and purified. PDE4B enzyme was incubated with compounds for 10 minutes. Cyclic AMP substrate, ATP and adenylate kinase were then added to the PDE enzyme mix and incubated for 45 minutes at room temperature. A commercial ATP detection assay, Perkin Elmer's easyLite ATP detection reagent, was then added to measure the relative amount of ATP present in the reaction. After 10 minute incubation, the luminescent signal was quantitated with either the Perkin Elmer Viewlux or Molecular Devices Acquest or Analyst.

T1 sequence (Q07343 330-659 limits assumed, species assumed): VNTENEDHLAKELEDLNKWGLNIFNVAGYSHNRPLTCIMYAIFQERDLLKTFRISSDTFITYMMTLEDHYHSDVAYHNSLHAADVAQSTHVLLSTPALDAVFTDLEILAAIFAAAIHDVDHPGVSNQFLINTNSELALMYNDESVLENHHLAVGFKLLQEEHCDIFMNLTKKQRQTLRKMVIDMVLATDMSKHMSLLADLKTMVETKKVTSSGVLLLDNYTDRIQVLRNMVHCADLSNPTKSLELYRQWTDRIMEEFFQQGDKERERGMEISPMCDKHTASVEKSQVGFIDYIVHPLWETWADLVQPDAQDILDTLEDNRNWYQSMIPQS

SMILES | IC50
COc1ccc2c(Nc3c(Cl)cncc3Cl)cc(=O)oc2c1OCCCCO [Example 73, 4-(3,5-Dichloropyridin-4-ylamino)-8-(4-hydroxybutoxy)-7-methoxy-2H-chromen-2-one] | < 1000 nM
COc1ccc2c(Nc3c(Cl)cncc3Cl)cc(=O)oc2c1OCCCCCOc1c(OC)ccc2c(Nc3c(Cl)cncc3Cl)cc(=O)oc12 [Example 74, 8,8′-(Pentane-1,5-diylbis(oxy))bis(4-(3,5-dichloropyridin-4-ylamino)-7-methoxy-2H-chromen-2-one)] | < 1000 nM
COc1ccc2c(Nc3c(Cl)cncc3Cl)cc(=O)oc2c1OCCCCCO[C@@H]1O[C@H](COC(C)=O)[C@@H](OC(C)=O)[C@H](OC(C)=O)[C@H]1OC(C)=O [Example 75, (2R,3R,4S,5R,6R)-2-(Acetoxymethyl)-6-(5-(4-(3,5-dichloropyridin-4-ylamino)-7-methoxy-2-oxo-2H-chromen-8-yloxy)pentyloxy)tetrahydro-2H-pyran-3,4,5-triyl triacetate] | < 1000 nM
COc1ccc2c(Nc3c(Cl)cncc3Cl)cc(=O)oc2c1OC/C=C\CO [Example 76, (Z)-4-(3,5-Dichloropyridin-4-ylamino)-8-(4-hydroxybut-2-enyloxy)-7-methoxy-2H-chromen-2-one] | < 1000 nM
COc1ccc2c(Nc3c(Cl)cncc3Cl)cc(=O)oc2c1O[C@@H]1O[C@H](CO)[C@@H](O)[C@H](O)[C@H]1O [Example 77, 4-(3,5-Dichloropyridin-4-ylamino)-7-methoxy-8-((2S,3R,4S,5S,6R)-3,4,5-trihydroxy-6-(hydroxymethyl)tetrahydro-2H-pyran-2-yloxy)-2H-chromen-2-one] | > 1000 nM
COc1ccc2c(Nc3c(Cl)cncc3Cl)cc(=O)oc2c1OCCCCCC(N)=O [Example 78, 6-(4-(3,5-Dichloropyridin-4-ylamino)-7-methoxy-2-oxo-2H-chromen-8-yloxy)hexanamide] | < 1000 nM
COc1ccc2c(Nc3c(Cl)cncc3Cl)cc(=O)oc2c1OCCCCCCN(C)C [Example 79, 4-(3,5-Dichloropyridin-4-ylamino)-8-(6-(dimethylamino)hexyloxy)-7-methoxy-2H-chromen-2-one] | < 1000 nM
COc1ccc2c(Nc3c(Cl)cncc3Cl)cc(=O)oc2c1OCCCCCCCN(C)C [Example 80, 4-(3,5-Dichloropyridin-4-ylamino)-8-(7-(dimethylamino)heptyloxy)-7-methoxy-2H-chromen-2-one] | < 1000 nM
COc1ccc2c(Nc3c(Cl)cncc3Cl)cc(=O)oc2c1OCCCCCCCCN(C)C [Example 81, 4-(3,5-Dichloropyridin-4-ylamino)-8-(8-(dimethylamino)octyloxy)-7-methoxy-2H-chromen-2-one] | < 1000 nM
COc1ccc2c(Nc3c(Cl)cncc3Cl)c(CCO)c(=O)oc2c1OC1CCCC1 [Example 82, 8-(Cyclopentyloxy)-4-(3,5-dichloropyridin-4-ylamino)-3-(2-hydroxyethyl)-7-methoxy-2H-chromen-2-one] | > 1000 nM
COc1ccc2c(Nc3c(Cl)cncc3Cl)cc(=O)oc2c1OCCCCCNC(=N)N [Example 83, 1-(5-(4-(3,5-Dichloropyridin-4-ylamino)-7-methoxy-2-oxo-2H-chromen-8-yloxy)pentyl)guanidine] | < 1000 nM
COc1ccc2c(Nc3c(Cl)cncc3Cl)cc(=O)oc2c1OCCCCCC(=O)NO [Example 84, 6-(4-(3,5-Dichloropyridin-4-ylamino)-7-methoxy-2-oxo-2H-chromen-8-yloxy)-N-hydroxyhexanamide] | < 1000 nM
COc1ccc2c(Nc3c(Cl)cncc3Cl)cc(=O)oc2c1OCCCO [Example 85, 4-(3,5-Dichloropyridin-4-ylamino)-8-(3-hydroxypropoxy)-7-methoxy-2H-chromen-2-one] | < 1000 nM
COc1ccc2c(Nc3c(Cl)cncc3Cl)cc(=O)oc2c1OCCCCOC(C)=O [Example 86, 4-(4-(3,5-Dichloropyridin-4-ylamino)-7-methoxy-2-oxo-2H-chromen-8-yloxy)butyl acetate] | < 1000 nM
